This is an account of results in patent US20250313548A1 (Actio Biosciences, Inc., priority 2023, published 2025).

The target of this assay is human, KCNT1 (Homo sapiens (Human), UniProt Q5JUK3). In words: FLIPR Tl/K Flux Assay. Format: cell-based. To be noted: HEK293 cells stably expressing human KCNT1; Tl+ flux stimulated with EC80 of agonist Loxapine. In outline: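 HEK293 cells stably expressing human KCNT1 were loaded with FLIPR potassium dye in HEPES/HBSS pH 7.4 with 5 mM probenecid, 1 h at 25 °C, then given test compound for 30 min at 25 °C. Tl+ flux was triggered with chloride-free buffer containing Tl+ and EC80 loxapine and read 160 s. IC50 came from Hill fits of % inhibition.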
Chain of human, KCNT1 (Q5JUK3 whole entry): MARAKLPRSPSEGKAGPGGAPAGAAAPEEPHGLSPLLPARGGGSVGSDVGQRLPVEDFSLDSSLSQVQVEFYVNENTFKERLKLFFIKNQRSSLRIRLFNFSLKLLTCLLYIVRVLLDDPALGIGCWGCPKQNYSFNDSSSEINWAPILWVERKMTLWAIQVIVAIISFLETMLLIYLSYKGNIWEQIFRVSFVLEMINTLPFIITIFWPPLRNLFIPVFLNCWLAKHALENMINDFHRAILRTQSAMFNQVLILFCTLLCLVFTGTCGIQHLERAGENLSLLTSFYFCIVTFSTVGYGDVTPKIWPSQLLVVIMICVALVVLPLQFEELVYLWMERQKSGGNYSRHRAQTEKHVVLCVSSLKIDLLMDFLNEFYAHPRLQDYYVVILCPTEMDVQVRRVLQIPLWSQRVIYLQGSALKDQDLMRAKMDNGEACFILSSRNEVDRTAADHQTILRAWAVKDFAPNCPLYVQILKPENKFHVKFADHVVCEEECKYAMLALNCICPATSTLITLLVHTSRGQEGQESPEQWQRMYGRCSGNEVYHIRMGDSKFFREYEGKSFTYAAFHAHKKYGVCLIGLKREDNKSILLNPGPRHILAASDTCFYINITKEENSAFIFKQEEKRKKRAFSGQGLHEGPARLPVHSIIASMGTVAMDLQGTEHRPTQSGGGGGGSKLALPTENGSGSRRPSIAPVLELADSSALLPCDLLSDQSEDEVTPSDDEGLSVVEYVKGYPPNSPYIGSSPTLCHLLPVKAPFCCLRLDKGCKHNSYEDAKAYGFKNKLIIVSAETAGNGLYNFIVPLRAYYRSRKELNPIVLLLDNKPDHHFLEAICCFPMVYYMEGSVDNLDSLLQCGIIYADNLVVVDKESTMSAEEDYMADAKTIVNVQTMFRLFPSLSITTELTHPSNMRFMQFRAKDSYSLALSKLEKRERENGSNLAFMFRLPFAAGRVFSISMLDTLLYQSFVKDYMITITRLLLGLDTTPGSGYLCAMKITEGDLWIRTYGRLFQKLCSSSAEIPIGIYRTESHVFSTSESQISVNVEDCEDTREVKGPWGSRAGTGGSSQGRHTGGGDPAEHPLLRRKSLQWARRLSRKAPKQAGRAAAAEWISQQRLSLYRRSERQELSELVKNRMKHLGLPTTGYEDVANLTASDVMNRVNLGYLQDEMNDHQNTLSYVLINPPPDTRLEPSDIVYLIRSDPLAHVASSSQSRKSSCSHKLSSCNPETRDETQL
As usually defined, the IC50 is the midpoint of a concentration-inhibition curve. A low value points to greater potency. The compound `N#Cc1cc(C(=O)N[C@H]2CCc3nn(-c4ccnc(C(F)(F)F)c4)cc32)ccc1F` [Compound I-267a, (S)-3-Cyano-4-fluoro-N-(2-(2-(trifluoromethyl)pyridin-4-yl)-2,4,5,6-tetrahydrocyclopenta[c]pyrazol-4-yl)benzamide] registered a half-maximal inhibitory concentration (IC50) of less than 250 nM.
The result for `COc1ccccc1C(=O)N[C@@H]1CCc2nn(-c3ccnc(C(F)(F)F)c3)cc21` [Compound I-94b] reads greater than 1000 nM; that for `Cn1nc(C(F)(F)F)cc1C(=O)N[C@@H]1CCn2nc(-c3ccnc(C4CC4)c3)cc21` [Compound I-68b], 500 to 1000 nM; that for `O=C(N[C@@H]1CCCCc2nn(-c3ccnc(C4CC4)c3)cc21)c1cccc(C(F)(F)F)c1` [Compound I-60b], 500 to 1000 nM.
Turning to `COc1cc(-c2cc3n(n2)CCC[C@@H]3NC(=O)c2cc(F)cc(C(F)(F)F)c2)ccn1` [Compound I-287a, (S)-3-Fluoro-N-(2-(2-methoxypyridin-4-yl)-4,5,6,7-tetrahydropyrazolo[1,5-a]pyridin-4-yl)-5-(trifluoromethyl)benzamide], the IC50 is less than 250 nM.
For the compound `Cn1ncnc1C(=O)N[C@H]1CCn2nc(-c3ccnc(C(F)(F)F)c3)cc21` [Compound I-225a], the IC50 is greater than 1000 nM.
`O=C(N[C@H]1CCn2nc(-c3ccnc(C(F)(F)F)c3)cc21)C12CC(C(F)(F)F)(C1)C2` [Compound I-138a, (S)-3-(Trifluoromethyl)-N-(2-(2-(trifluoromethyl)pyridin-4-yl)-5,6-dihydro-4H-pyrrolo[1,2-b]pyrazol-4-yl)bicyclo[1.1.1]pentane-1-carboxamide]: the half-maximal inhibitory concentration (IC50) was less than 250 nM.
On to `COc1cc(-c2cc3n(n2)CCC[C@@H]3NC(=O)c2cc(C(F)(F)F)nn2C)cc(C)n1` [Compound I-431a], for which the IC50 was less than 250 nM.
In the case of `CCc1cc(F)cc(C(=O)N[C@@H]2CCc3nn(-c4ccnc(C(F)(F)F)c4)cc32)c1` [Compound I-127b] it was less than 250 nM; in that of `COc1cc(C(=O)N[C@H]2CCCCn3nc(-c4ccnc(C(F)(F)F)c4)cc32)ccn1` [Compound I-329a, (S)-2-Methoxy-N-(2-(2-(trifluoromethyl)pyridin-4-yl)-5,6,7,8-tetrahydro-4H-pyrazolo[1,5-a]azepin-4-yl)isonicotinamide], less than 250 nM; in that of `CCOc1cc(F)cc(C(=O)N[C@H]2CCn3nc(-c4cc(OC)ncc4F)cc32)c1` [Compound I-574a, (S)-3-Ethoxy-5-fluoro-N-(2-(5-fluoro-2-methoxypyridin-4-yl)-5,6-dihydro-4H-pyrrolo[1,2-b]pyrazol-4-yl)benzamide], less than 250 nM.
The result for `O=C(N[C@H]1CCn2nc(-c3ccnc(C4CC4)c3)cc21)C12CC(C(F)(F)F)(C1)C2` [Compound I-494a, (S)-N-(2-(2-Cyclopropylpyridin-4-yl)-5,6-dihydro-4H-pyrrolo[1,2-b]pyrazol-4-yl)-3-(trifluoromethyl)bicyclo[1.1.1]pentane-1-carboxamide] reads less than 250 nM; that for `O=C(N[C@H]1CCc2nn(-c3ccnc(C(F)(F)F)c3)cc21)c1cc(F)cc(Cl)c1` [Compound I-396a], less than 250 nM.
In the case of `O=C(N[C@H]1CCCc2nc(-c3cc(C4CC4)ncc3F)oc21)c1ccnc(OC(F)(F)F)c1` [Compound I-158a, (S)-N-(2-(2-Cyclopropyl-5-fluoropyridin-4-yl)-4,5,6,7-tetrahydrobenzo[d]oxazol-7-yl)-2-(trifluoromethoxy)isonicotinamide] it was less than 250 nM; in that of `COc1cc(F)cc(C(=O)N[C@H]2CCCn3nc(-c4ccnc(C(F)(F)F)c4)cc32)c1` [Compound I-578a, (S)-3-Fluoro-5-methoxy-N-(2-(2-(trifluoromethyl)pyridin-4-yl)-4,5,6,7-tetrahydropyrazolo[1,5-a]pyridin-4-yl)benzamide], less than 250 nM.
Consider `Cc1cc(-c2cc3n(n2)CCC[C@@H]3NC(=O)c2cc(C(F)(F)F)nn2C)cc(C)n1` [Compound I-433a], for which the IC50 is greater than 1000 nM.
The result for `Cc1cc(C(=O)N[C@H]2CCCc3oc(-c4ccnc(C(F)(F)F)c4)nc32)cc(C(F)(F)F)c1` [Compound I-250a, (S)-3-Methyl-5-(trifluoromethyl)-N-(2-(2-(trifluoromethyl)pyridin-4-yl)-4,5,6,7-tetrahydrobenzo[d]oxazol-4-yl)benzamide] reads less than 250 nM; that for `Cc1c(-c2ccnc(C(F)(F)F)c2)nn2c1[C@@H](NC(=O)c1cc(C(F)(F)F)nn1C)CCC2` [Compound I-44a], less than 250 nM.
`O=C(N[C@H]1CCc2nn(-c3ccnc(C4CC4)c3)cc21)c1cc(F)cc(F)c1` [Compound I-462a] had an IC50 of less than 250 nM.
With `COc1cc(C#N)cc(C(=O)N[C@H]2CCn3nc(-c4ccnc(C(F)(F)F)c4)cc32)c1` [Compound I-258a, (S)-3-Cyano-5-methoxy-N-(2-(2-(trifluoromethyl)pyridin-4-yl)-5,6-dihydro-4H-pyrrolo[1,2-b]pyrazol-4-yl)benzamide], the IC50 was less than 250 nM.
Consider `Cc1cc(C#N)cc(C(=O)N[C@H]2CCn3nc(-c4cc(C(F)(F)F)ncc4F)cc32)c1` [Compound I-140a], for which the concentration for half-maximal inhibition (IC50) is less than 250 nM.
In the case of `N#Cc1cc(F)cc(C(=O)N[C@H]2CCCCn3nc(-c4ccnc(C5CC5)c4)cc32)c1` [Compound I-265a, (S)-3-Cyano-N-(2-(2-cyclopropylpyridin-4-yl)-5,6,7,8-tetrahydro-4H-pyrazolo[1,5-a]azepin-4-yl)-5-fluorobenzamide] it was less than 250 nM; in that of `O=C(N[C@H]1CCCc2nc(-c3ccnc(C(F)(F)F)c3)oc21)c1cncc(C(F)(F)F)n1` [Compound I-184a, (S)-6-(Trifluoromethyl)-N-(2-(2-(trifluoromethyl)pyridin-4-yl)-4,5,6,7-tetrahydrobenzo[d]oxazol-7-yl)pyrazine-2-carboxamide], less than 250 nM; in that of `Cc1cnc(C(F)(F)F)cc1-n1cc2c(n1)CC[C@@H]2NC(=O)c1cc(C(F)(F)F)nn1C` [Compound I-304a, (S)-1-Methyl-N-(2-(5-methyl-2-(trifluoromethyl)pyridin-4-yl)-2,4,5,6-tetrahydrocyclopenta[c]pyrazol-4-yl)-3-(trifluoromethyl)-1H-pyrazole-5-carboxamide], less than 250 nM.
The result for `O=C(N[C@H]1CCCn2nc(-c3ccnc(C(F)(F)F)c3)nc21)c1cc(F)cc(F)c1` [Compound I-234a, (S)-3,5-Difluoro-N-(2-(2-(trifluoromethyl)pyridin-4-yl)-5,6,7,8-tetrahydro-[1,2,4]triazolo[1,5-a]pyridin-8-yl)benzamide] reads less than 250 nM; that for `Cn1nc(C(F)(F)F)cc1C(=O)N[C@H]1CCCn2nc(-c3cnnc(C(F)(F)F)c3)cc21` [Compound I-307a, (S)-1-Methyl-3-(trifluoromethyl)-N-(2-(6-(trifluoromethyl)pyridazin-4-yl)-4,5,6,7-tetrahydropyrazolo[1,5-a]pyridin-4-yl)-1H-pyrazole-5-carboxamide], 500 to 1000 nM.
In turn, `O=C(N[C@H]1CCCn2nc(-c3ccnc(C(F)(F)F)c3)cc21)c1cc(F)cc(C2CC2)c1` [Compound I-580a, (S)-3-Cyclopropyl-5-fluoro-N-(2-(2-(trifluoromethyl)pyridin-4-yl)-4,5,6,7-tetrahydropyrazolo[1,5-a]pyridin-4-yl)benzamide] returned a half-inhibitory concentration (IC50) of less than 250 nM.
In the case of `O=C(N[C@H]1CCn2nc(-c3cc(C(F)(F)F)ncc3F)cc21)c1ccn2nccc2c1` [Compound I-549a] it was less than 250 nM; in that of `COc1cc(-c2nc3c(o2)[C@@H](NC(=O)c2cccc(C(F)(F)F)c2)CCC3)c(Cl)cn1` [Compound I-167a, (S)-N-(2-(5-Chloro-2-methoxypyridin-4-yl)-4,5,6,7-tetrahydrobenzo[d]oxazol-7-yl)-3-(trifluoromethyl)benzamide], less than 250 nM.
In the case of `CCOc1cc(-c2cc3n(n2)CCC[C@@H]3NC(=O)c2cc(F)cc(C#N)c2)ccn1` [Compound I-252a, (S)-3-Cyano-N-(2-(2-ethoxypyridin-4-yl)-4,5,6,7-tetrahydropyrazolo[1,5-a]pyridin-4-yl)-5-fluorobenzamide] it was less than 250 nM; in that of `CC(F)(F)c1cc(-n2cc3c(n2)CC[C@@H]3NC(=O)c2cccc(C#N)c2)ccn1` [Compound I-274a, (S)-3-Cyano-N-(2-(2-(1,1-difluoroethyl)pyridin-4-yl)-2,4,5,6-tetrahydrocyclopenta[c]pyrazol-4-yl)benzamide], less than 250 nM; in that of `Cn1nc(C(F)(F)F)nc1C(=O)N[C@H]1CCCn2nc(-c3ccnc(C4CC4)c3)cc21` [Compound I-499a, (S)-N-(2-(2-Cyclopropylpyridin-4-yl)-4,5,6,7-tetrahydropyrazolo[1,5-a]pyridin-4-yl)-1-methyl-3-(trifluoromethyl)-1H-1,2,4-triazole-5-carboxamide], less than 250 nM.
Compound `O=C(N[C@@H]1CCCc2nc(-c3cc(C4CC4)ncc3F)oc21)c1cncc(C(F)(F)F)n1` [Compound I-511b] registered an IC50 greater than 1000 nM.
The result for `Cn1nc(C(F)(F)F)cc1C(=O)N[C@H]1CCCc2sc(-c3ccnc(C(F)(F)F)c3)nc21` [Compound I-80a] reads 500 to 1000 nM.
For `Cc1cnc(C(F)(F)F)cc1-c1cc2n(n1)CCCC[C@@H]2NC(=O)c1cccc(C#N)c1` [Compound I-280a, (S)-3-Cyano-N-(2-(5-methyl-2-(trifluoromethyl)pyridin-4-yl)-5,6,7,8-tetrahydro-4H-pyrazolo[1,5-a]azepin-4-yl)benzamide], the IC50 is less than 250 nM.
For the compound `Cc1nc(C(=O)N[C@H]2CCCc3oc(-c4ccnc(C5CC5)c4)nc32)n(C)n1` [Compound I-227a, (S)-N-(2-(2-Cyclopropylpyridin-4-yl)-4,5,6,7-tetrahydrobenzo[d]oxazol-4-yl)-1,3-dimethyl-1H-1,2,4-triazole-5-carboxamide], the IC50 is greater than 1000 nM.
In the case of `COc1cc(-n2cc3c(n2)CCCC[C@H]3NC(=O)c2cccc(C)c2)ccn1` [Compound I-376b] it was greater than 1000 nM.
